Laboratory results: publication PMC8296622, “Crystal structure and functional characterization of an oligosaccharide dehydrogenase from Pycnoporus cinnabarinus provides insights into fungal breakdown of lignocellulose” (Biotechnology for Biofuels, 2021)

Legend:
[1] = biological target: T1, ODH (oligosaccharide dehydrogenase) (Trametes cinnabarina, UniProt A0A060SC37); assay: X-ray crystallography of soaked crystals (data not shown); conditions: bound at three external surface sugar-binding sites, not in the active site
T1 construct: gene BN946_scf184803.g17

[2] = biological target: T1, ODH (oligosaccharide dehydrogenase); assay: X-ray crystallography; format: binding; conditions: ligand-free (sugar-free) enzyme, 1.6 Å; non-covalently bound, oxidized FAD

T1 sequence (A0A060SC37 entry or part of it): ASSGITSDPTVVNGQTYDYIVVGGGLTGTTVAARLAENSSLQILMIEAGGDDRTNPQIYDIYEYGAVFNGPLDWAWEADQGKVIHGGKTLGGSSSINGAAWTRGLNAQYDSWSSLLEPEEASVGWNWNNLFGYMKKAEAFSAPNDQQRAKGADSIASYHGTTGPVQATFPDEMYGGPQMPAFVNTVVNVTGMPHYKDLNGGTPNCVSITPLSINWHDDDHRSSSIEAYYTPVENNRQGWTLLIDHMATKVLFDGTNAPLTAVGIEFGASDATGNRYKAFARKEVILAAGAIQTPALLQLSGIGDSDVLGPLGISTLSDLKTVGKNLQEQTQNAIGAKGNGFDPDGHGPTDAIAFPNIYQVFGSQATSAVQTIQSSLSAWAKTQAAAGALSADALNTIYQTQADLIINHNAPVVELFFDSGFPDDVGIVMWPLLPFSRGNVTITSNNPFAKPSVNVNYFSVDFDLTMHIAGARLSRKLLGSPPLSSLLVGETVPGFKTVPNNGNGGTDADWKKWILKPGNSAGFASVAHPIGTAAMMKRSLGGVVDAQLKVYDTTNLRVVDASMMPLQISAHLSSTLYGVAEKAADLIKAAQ

SMILES	X-ray crystallography of soaked crystals (data not shown) [1]	X-ray crystallography [2]
OC[C@H]1O[C@@H](O[C@H]2[C@H](O)[C@@H](O)C(O)O[C@@H]2CO)[C@H](O)[C@@H](O)[C@@H]1O (mixture of isomers) [G4G, cellobiose]	the ligand was clearly bound to (and modeled at) the three SBSs (data not shown)	–
Cc1cc2nc3c(=O)[nH]c(=O)nc-3n(C[C@H](O)[C@H](O)[C@H](O)COP(=O)(O)OP(=O)(O)OC[C@H]3O[C@@H](n4cnc5c(N)ncnc54)[C@H](O)[C@@H]3O)c2cc1C [FAD]	–	The FAD molecule is non-covalently bound to the protein
